In patent publication US20260345609A1, “METHODS FOR PROMOTING PERSISTENCE OF CELL THERAPY” (Legend Biotech Ireland Limited, priority 2022, published 2026):

Key:
LUCAR-20SD cells = assay: Effect of MTX concentration on proliferation of LUCAR-20SD cells in vitro (AOPI counting); assay type: cell-based, human
From the text: pLVX-Puro vector purchased from Clontech was subjected to the digestion reaction with ClaI and EcoRI restriction enzymes, and the CMV promoter was replaced with a human EFlapromoter (GenBank: J04617.1) to obtain the pLVX-hEF1α vector. The gene of DHFR L22F/F31S (SEQ ID NO: 1) was inserted between SIV NEF M116 and CD20 CAR of LCAR-UL186S, which was disclosed in PCT patent applications No. PCT/CN2020/112181 and PCT/CN2020/112182. The fusion gene sequence of SIV Nef_M116-P2A-DHFR L22F/F31S-IRES-CD8α SP-CD20 scFv (Leu16)-CD8α Hinge-CD8α TM-4-1BB-ITAM010, hereinafter referred to as “LUCAR-20SD” (SEQ ID NO: 4) was cloned into the expression plasmid pLVX-hEF1α to form the LUCAR-20SD expression plasmid named as M1586. The recombinant expression plasmid M1586 was extracted, mixed with psPAX2 and pMD2. G helper plasmids in a certain proportion, and co-transfected into HEK 293T cells. After 60 h of transfection, the cell culture supernatant containing the virus was collected and centrifuged at 4° C. and 3000 rpm for 5 min. After the supernatant was filtered through a 0.45 μm filter, the 500 KD hollow fiber membrane column tangential flow technique was used to further concentrate to prepare a lentivirus concentrate, which was stored at-80° C. for later use.
50 mL of fresh peripheral blood of volunteers was extracted, and mixed with lymphocyte separation medium. The peripheral blood mononuclear cells (PBMC) were separated by density gradient centrifugation. The cells were labeled with magnetic beads using Pan T Cell Isolation Kit (Miltenyi Biotech), and T lymphocytes were isolated and purified, and then activated by CD3/CD28 magnetic beads. After culturing for 24 hours in a 37° C., 5% CO2 incubator, 5×10^6 activated T lymphocytes were infected with the lentiviral vector of LUCAR-20SD. […]
Cultured with the addition of methotrexate (MTX) at the concentrations of 0 μM, 0.01 μM, 0.05 μM, 0.1 μM, 1 μM, or 2 μM, the cell number of LUCAR-20SD cells at day0 day3 day6 day9, day 12, and the cell number of CAR-γδT cells at day0 day2 day5 day7 were counted by AOPI. […]

CAR-γδT cells = assay: In vitro mixed lymphoid (MLR) model with CAR-γδT cells, UnT and U937 cells: graft CAR-γδT cells; assay type: cell-based, human; conditions: 0.05 μM and 0.5 μM MTX
Description: To evaluate the ability of γδ T cells to tolerate allogeneic T cell rejection, an in vitro mixed lymphoid (MLR) model was established.
Using the T cells from a random healthy donor (B donor), CAR-γδT cells were prepared following the method in Example 1, as the graft cells. Un-transduced T cells (UnT) from another random healthy donor (T cell donor A) were also prepared, as the host cells.
The density of CLL1 positive human lymphoma cells (U937) was adjusted to 1×10^6 cells/mL. U937 cells were treated with 20 μg/mL mitomycin at 37° C. for 3 h, washed three times with 10 mL DPBS, and suspended in the culture medium. 20×10^6 untransduced T cells (UnT, T cell donor A), 1×10^6 CAR-γδT cells (T cell donor B), and 5×10^6 treated human lymphoma cells U937 were mixed and cultured in the medium. The cell mixture was divided into 3 groups, and 0 μM, 0.05 μM MTX, or 0.5 μM MTX was added, respectively. […] CAR-γδT cells were stimulated repeatedly with U937 cells at day0, day4, day7 at an E/T ratio of 1:1 According to the formula: fold change of cell number (UnT)=[cell number counted by AOPI×(CD3-/TCR VY9+%)]/20, fold change of cell number (CAR-γδT)=[cell number counted by AOPI×(CD3+/TCR Vγ9+%)]/1, the cell proliferation curves of UnT and CAR-γδT cells were plotted.

LUCAR-GC cells = assay: Expansion of transplanted LUCAR-GC cells in peripheral blood of NUGC4 xenograft mice (hCD45+%/live); assay type: in vivo, NCG immunodeficient mice; human cells; conditions: 22.635 mg/kg MTX i.p.
From the text: Severely immunodeficient NCG mice were used for in vivo efficacy evaluation. On day −14 before treatment, NCG immunodeficient mice were inoculated subcutaneously with tumor cells (3×10^6 human gastric cancer cells NUGC4/mouse). The xenografted mice were divided into 5 groups ([…], G3, G4 and G5) on day 0, and received a single intravenous injection of HBSS (G1, G5), untransduced T cells (UnT) (G2, at a dose of 3.6×10^6 cells/mouse), LUCAR-GC cell preparation (G3 and G4, at a dose of 1×10^6 CAR+ cells/mouse). Mice in G4 and G5 groups were additionally given 22.635 mg/kg MTX by intraperitoneal injection on day5, day10, day 15, day20, day25, day30, day35, respectively. […] During the experiment, animal status, survival, tumor volume and body weight were measured twice a week. Blood was collected from the mouse eyeballs every week to separate cells, and then resuspended in DPBS with 1 μL of FITC anti human CD45 (Biolegend, 304038). The proportion of transplanted cells (hCD45+%/live) in the peripheral blood of mice was counted.

## CN(Cc1cnc2nc(N)nc(N)c2n1)c1ccc(C(=O)N[C@@H](CCC(=O)O)C(=O)O)cc1 [MTX, methotrexate]
LUCAR-20SD cells; 0.01 μM to 1 μM MTX, day 12, p>0.05
  proliferation of LUCAR-20SD cells compared with 0 μM MTX: no significant difference in cell proliferation
LUCAR-20SD cells; 2 μM MTX, day 12, p<0.05
  proliferation of LUCAR-20SD cells compared with 0 μM MTX: decreased significantly
LUCAR-20SD cells; Homo sapiens, 288 h, day 12, read-out: MTX concentration that affects the proliferation of LUCAR-20SD cells
  minimal effective concentration: ≥ 2 µM
CAR-γδT cells
  protective effect on heterologous CAR-γδT cells: good protective effect on heterologous CAR-γδT cells
LUCAR-GC cells
  expansion of LUCAR-GC cells in peripheral blood, presence or absence of MTX: no significant difference in the expansion of LUCAR-GC cells
